Measured values: the supplement of paper PMC11208160

Assay: recombinant barcode read abundance after kanamycin selection (control-corrected) (log10(CPM+1)); higher = more efficient recombination; sequences stand for … in AGTGCAGAGAAAATCGGCCAGTTTTCTCTGCCTGCAGTCCGCATGCCGT…ATTTATGCAGCGGACTGCCTTTCTCCCAAAGTGATAAACCGGACAGTATCATGGACCGGTTTTCCCGGTAATCCGTATTTGCAAGGTTGGTTTCACT; site = the 11-nt target
Outline: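 In E. coli, a pooled library matched targets to IS621 bridge RNA target-binding loops and was introduced alongside a donor plasmid. Cells went onto chloramphenicol/ampicillin/kanamycin with 0.1 mM IPTG or onto chloramphenicol/ampicillin LB agar as control, in duplicate. Recombination efficiency, from recombinant-junction barcodes as counts per million, is averaged and control-corrected. It is reported as log10(CPM+1).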

Row | Sequence | recombinant barcode read abundance (log10)
1 | TAGAGGGAATGGGTTCTAACCTGTTGCGGAG [TAGAGGGCTCC_LTGcore_AA_RTGcore_CT] (site TAGAGGGCTCC) (LTG core: AA, RTG core: CT) | 0.247
2 | TAGAGGGACTGGGTTCTAACCTGTTGCGGAG [TAGAGGGCTCC_LTGcore_AC_RTGcore_CT] (site TAGAGGGCTCC) (LTG core: AC, RTG core: CT) | 0.265
3 | TAGAGGGCTTGGGTTCTAACCTGTTGCGGCG [TAGAGGGCTCC_LTGcore_CT_RTGcore_CG] (site TAGAGGGCTCC) (LTG core: CT, RTG core: CG) | 0.972
4 | TAGAGGGCTTGGGTTCTAACCTGTTGCGGGC [TAGAGGGCTCC_LTGcore_CT_RTGcore_GC] (site TAGAGGGCTCC) (LTG core: CT, RTG core: GC) | 1.36
5 | TAGAGGGCTTGGGTTCTAACCTGTTGCGGGG [TAGAGGGCTCC_LTGcore_CT_RTGcore_CC] (site TAGAGGGCTCC) (LTG core: CT, RTG core: CC) | 0.241
6 | TAGAGGGCTTGGGTTCTAACCTGTTGCGGTA [TAGAGGGCTCC_LTGcore_CT_RTGcore_TA] (site TAGAGGGCTCC) (LTG core: CT, RTG core: TA) | 0.144
7 | TAGAGGGGATGGGTTCTAACCTGTTGCGGTC [TAGAGGGCTCC_LTGcore_GA_RTGcore_GA] (site TAGAGGGCTCC) (LTG core: GA, RTG core: GA) | 0.0627
8 | TAGAGGGGCTGGGTTCTAACCTGTTGCGGAG [TAGAGGGCTCC_LTGcore_GC_RTGcore_CT] (site TAGAGGGCTCC) (LTG core: GC, RTG core: CT) | 0.284
9 | TAGAGGGTCTGGGTTCTAACCTGTTGCGGAG [TAGAGGGCTCC_LTGcore_TC_RTGcore_CT] (site TAGAGGGCTCC) (LTG core: TC, RTG core: CT) | 0.506
10 | TAGAGGGTGTGGGTTCTAACCTGTTGCGGCA [TAGAGGGCTCC_LTGcore_TG_RTGcore_TG] (site TAGAGGGCTCC) (LTG core: TG, RTG core: TG) | 0.623
11 | TCGCGACAGTGGGTTCTAACCTGTTGCCGAG [TCGCGACCTCG_LTGcore_AG_RTGcore_CT] (site TCGCGACCTCG) (LTG core: AG, RTG core: CT) | 0.161
12 | TCGCGACCTTGGGTTCTAACCTGTTGCCGAA [TCGCGACCTCG_LTGcore_CT_RTGcore_TT] (site TCGCGACCTCG) (LTG core: CT, RTG core: TT) | 0.666
13 | TCGCGACCTTGGGTTCTAACCTGTTGCCGAG [TCGCGACCTCG_LTGcore_CT_RTGcore_CT] (site TCGCGACCTCG) (LTG core: CT, RTG core: CT) | 1.15
14 | TCGCGACGCTGGGTTCTAACCTGTTGCCGGC [TCGCGACCTCG_LTGcore_GC_RTGcore_GC] (site TCGCGACCTCG) (LTG core: GC, RTG core: GC) | 0.0326
15 | TCGCGACGGTGGGTTCTAACCTGTTGCCGCC [TCGCGACCTCG_LTGcore_GG_RTGcore_GG] (site TCGCGACCTCG) (LTG core: GG, RTG core: GG) | 0.0807
16 | TCGCGACTATGGGTTCTAACCTGTTGCCGTA [TCGCGACCTCG_LTGcore_TA_RTGcore_TA] (site TCGCGACCTCG) (LTG core: TA, RTG core: TA) | 0.139
17 | TCTACCCCTTGGGTTCTAACCTGTTGCTGCA [TCTACCCCTCA_LTGcore_CT_RTGcore_TG] (site TCTACCCCTCA) (LTG core: CT, RTG core: TG) | 0.217
18 | TCTACCCCTTGGGTTCTAACCTGTTGCTGGC [TCTACCCCTCA_LTGcore_CT_RTGcore_GC] (site TCTACCCCTCA) (LTG core: CT, RTG core: GC) | 0.129
